Experimental data from US9320722B2, “Regulators of aldehyde dehydrogenase ALDH3A1 and related therapeutic methods” (Indiana University Research and Technology Corporation, priority 2013, dated 2016).
Where two headings read alike, the source gives them in different places. Blank lines part the entries; values can stand above or below the compound they belong to.

Tests used:
ALDH3A1 [1] = molecular target: T1, ALDH3A1 (Homo sapiens (Human), UniProt P30838); experiment: biochemical; conditions: for inhibition at 10 µM: read-out: % activity left after treating with 10 micromolar inhibitor ALDH3A1
T1 sequence (P30838 whole entry): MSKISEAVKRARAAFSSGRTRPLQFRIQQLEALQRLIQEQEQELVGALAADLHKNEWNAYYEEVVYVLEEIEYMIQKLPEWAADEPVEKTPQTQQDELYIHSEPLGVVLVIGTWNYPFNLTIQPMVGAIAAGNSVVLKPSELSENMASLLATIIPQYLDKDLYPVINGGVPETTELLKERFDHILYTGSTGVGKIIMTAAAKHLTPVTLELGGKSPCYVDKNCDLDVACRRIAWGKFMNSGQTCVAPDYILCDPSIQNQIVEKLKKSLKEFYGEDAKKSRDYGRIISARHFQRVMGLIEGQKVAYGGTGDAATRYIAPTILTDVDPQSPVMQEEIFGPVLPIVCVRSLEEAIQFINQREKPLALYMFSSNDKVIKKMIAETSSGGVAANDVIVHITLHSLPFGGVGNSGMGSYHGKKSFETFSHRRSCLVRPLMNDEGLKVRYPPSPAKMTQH

ALDH3A1 [2] = molecular target: T1, ALDH3A1
ALDH2 = ALDH2 (Homo sapiens (Human), UniProt P05091); experiment: ALDH2 dehydrogenase activity / IC50 determination (propionaldehyde substrate); format: biochemical; conditions: for IC50: Table 4, hits from ChemDiv screen, NI not defined, read-out: IC50 (micromolar) ALDH2; for inhibitory potential toward ALDH2 activity in vitro (in words): CB29 analogs
ALDH2, sequence (P05091 18-517): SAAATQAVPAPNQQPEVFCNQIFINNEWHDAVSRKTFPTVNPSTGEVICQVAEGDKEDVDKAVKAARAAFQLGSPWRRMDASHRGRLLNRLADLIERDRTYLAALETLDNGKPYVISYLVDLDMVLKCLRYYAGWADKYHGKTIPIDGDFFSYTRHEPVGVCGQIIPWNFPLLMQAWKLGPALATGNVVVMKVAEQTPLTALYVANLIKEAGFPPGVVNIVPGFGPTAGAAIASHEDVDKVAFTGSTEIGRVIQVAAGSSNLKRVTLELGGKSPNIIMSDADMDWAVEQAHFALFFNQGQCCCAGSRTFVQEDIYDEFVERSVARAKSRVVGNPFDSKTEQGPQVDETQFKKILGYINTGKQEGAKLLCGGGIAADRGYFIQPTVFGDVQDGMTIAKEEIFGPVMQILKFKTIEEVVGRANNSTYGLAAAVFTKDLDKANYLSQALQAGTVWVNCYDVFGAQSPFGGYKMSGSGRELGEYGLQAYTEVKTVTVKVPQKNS

ALDH1A1 = ALDH1A1 (Homo sapiens (Human), UniProt P00352); experiment: ALDH1A1 dehydrogenase activity / IC50 determination (propionaldehyde substrate); format: biochemical; conditions: for IC50: Table 4, hits from ChemDiv screen, read-out: IC50 (micromolar) ALDH1A1; for inhibitory potential / activity toward ALDH1A1 in vitro (in words): CB29 analogs; for IC50 (micromolar) ALDH1A1: Tables 1A/1B, propionaldehyde substrate, S.D. in parentheses
ALDH1A1, sequence (P00352 whole entry): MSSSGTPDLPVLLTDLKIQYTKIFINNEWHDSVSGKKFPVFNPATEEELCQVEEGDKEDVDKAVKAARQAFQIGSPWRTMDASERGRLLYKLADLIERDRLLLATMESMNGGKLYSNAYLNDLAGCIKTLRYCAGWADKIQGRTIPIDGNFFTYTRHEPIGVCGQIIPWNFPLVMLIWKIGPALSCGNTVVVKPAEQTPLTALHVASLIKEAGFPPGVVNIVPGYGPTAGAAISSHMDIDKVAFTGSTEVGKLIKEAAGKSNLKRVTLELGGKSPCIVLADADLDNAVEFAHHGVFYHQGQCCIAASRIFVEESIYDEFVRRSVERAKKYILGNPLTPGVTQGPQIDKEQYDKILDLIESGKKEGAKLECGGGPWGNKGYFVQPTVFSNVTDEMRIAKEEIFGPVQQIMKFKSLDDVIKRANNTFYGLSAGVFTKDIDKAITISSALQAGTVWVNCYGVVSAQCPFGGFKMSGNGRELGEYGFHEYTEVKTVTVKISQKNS

Solubility = format: physicochemical; conditions: in the presence of […] DMSO
A549 cells = experiment: MTT assay for cell proliferation / mafosfamide sensitivity, A549; format: cell-based; conditions: FIG. 4A; for sensitivity to mafosfamide on co-treatment (in words), A549: 50 μM inhibitor + mafosfamide; for effect on cell proliferation as single agent (in words), A549: 50 μM inhibitor
SF767 cells = experiment: MTT assay for cell proliferation / mafosfamide sensitivity, SF767; format: cell-based; conditions: for sensitivity to mafosfamide on co-treatment (in words), SF767: 50 μM inhibitor + […] mafosfamide; for sensitivity to mafosfamide on co-treatment (in words), SF767 / effect on cell proliferation as single agent (in words), SF767: FIG. 4B; for effect on cell proliferation as single agent (in words), SF767: 50 μM inhibitor; for chemosensitivity to mafosfamide (in words), SF767: 10 μM inhibitor + mafosfamide
ALDH3A1 Q122A mutant = ALDH3A1 Q122A mutant (Homo sapiens (Human), UniProt P30838, Q123A)
ALDH3A1 Q122A mutant, sequence (P30838 whole entry Q123A): as the sequence (P30838 whole entry) above, with Q123A counted along it
Experimental: (§1) These two mutant proteins were purified exactly the same way as was ALDH3A1. […] Kinetic experiments were performed exactly the same way as the wild type (WT) enzyme.

ALDH3A1 Q122W mutant = ALDH3A1 Q122W mutant (Homo sapiens (Human), UniProt P30838, Q123W)
ALDH3A1 Q122W mutant, sequence (P30838 whole entry Q123W): as the sequence (P30838 whole entry) above, with Q123W counted along it
Experimental: as §1

ALDH3A1 [3] = molecular target: T1, ALDH3A1; format: biochemical; conditions: wt ALDH3A1
[4] = read-out: IC50 (micromolar) ALDH3A1, Table 4, hits from ChemDiv screen
[5] = read-out: IC50 (micromolar) ALDH3A1, Tables 1A/1B, benzaldehyde substrate, S.D. for three assays in parentheses
[6] = read-out: IC50 against ALDH3A1, benzaldehyde substrate

Structure (SMILES): Cc1ccc(-c2ccc(/C=C/[N+](=O)O)o2)c(Br)c1 [CB39]
inhibition at 10 µM (ALDH3A1 [1]): 32%

Structure (SMILES): COc1ccc(/C=C/[N+](=O)O)cc1I [CB40]
inhibition at 10 µM (ALDH3A1 [1]): 30%

Structure (SMILES): CN(C)c1ccc(/C=C/[N+](=O)O)cc1Br [CB41]
inhibition at 10 µM (ALDH3A1 [1]): 45%

Structure (SMILES): C#CCOc1c(Cl)cc(/C=C/[N+](=O)O)cc1OC [CB42]
inhibition at 10 µM (ALDH3A1 [1]): 46%

Structure (SMILES): O=C1Nc2ccccc2C12Oc1ccccc1C1CC(c3ccccc3)=NN12 (centres unmarked) [CD3]
IC50 (ALDH3A1 [2]; [4]): 38.5 µM
IC50 (ALDH2): 41.8 µM
IC50 (ALDH1A1): 6.5 µM

Structure (SMILES): CCCSc1nnc2c(n1)OC(C(=O)c1ccc(OC)cc1)Nc1ccccc1-2 (centres unmarked) [CD4]
IC50 (ALDH3A1 [2]; [4]): 2.5 µM
IC50 (ALDH2): 1.4 µM
IC50 (ALDH1A1): 21.2 µM

Structure (SMILES): CCSc1nnc2c(n1)OC(C(=O)c1ccc(OC)cc1)Nc1ccccc1-2 (centres unmarked) [CD5]
IC50 (ALDH3A1 [2]; [4]): 1.5 µM
IC50 (ALDH2): 1.2 µM
IC50 (ALDH1A1): 8.2 µM

Structure (SMILES): CCOC(=O)CN1C(=O)C(O)(CC(=O)c2ccccn2)c2ccccc21 (centres unmarked) [CD7]
IC50 (ALDH3A1 [2]; [4]): 25.5 µM
IC50 (ALDH1A1): 0.7 µM

Structure (SMILES): CCOC(=O)CN1C(=O)C(O)(CC(=O)c2ccncc2)c2ccccc21 (centres unmarked) [CD8]
IC50 (ALDH3A1 [2]; [4]): 6.3 µM
IC50 (ALDH2): 11.1 µM
IC50 (ALDH1A1): 0.8 µM

Structure (SMILES): Cc1ccc(S(=O)(=O)NC(O)C(=O)c2cccs2)cc1 (centres unmarked) [CD10]
IC50 (ALDH3A1 [2]; [4]): 3.4 µM
IC50 (ALDH2): 2.2 µM
IC50 (ALDH1A1): 4 µM

Structure (SMILES): O=C(NC(O)C(=O)c1cccs1)c1cccnc1 (centres unmarked) [CD11]
IC50 (ALDH3A1 [2]; [4]): 10.2 µM
IC50 (ALDH2): 6.5 µM
IC50 (ALDH1A1): 5.9 µM

Structure (SMILES): O=C(NC(O)C(=O)c1cccs1)c1ccncc1 (centres unmarked) [CD12]
IC50 (ALDH3A1 [2]; [4]): 5.6 µM
IC50 (ALDH2): 5.3 µM
IC50 (ALDH1A1): 4.2 µM

Structure (SMILES): CCn1c(-c2ccc(OC)c(F)c2)cs/c1=N/c1ccccc1 [CD13]
IC50 (ALDH3A1 [2]; [4]): 60 µM
IC50 (ALDH2): 7.3 µM
IC50 (ALDH1A1): 6.3 µM

Structure (SMILES): CCCC1C(C#N)=C(SCC(=O)c2ccc(Br)cc2)NC(C)=C1C(C)=O (centres unmarked) [CD14]
IC50 (ALDH3A1 [2]; [4]): 71.5 µM
IC50 (ALDH2): 13.7 µM
IC50 (ALDH1A1): 10.4 µM

Structure (SMILES): Cc1cccc(C(=O)CN2CCN(S(=O)(=O)c3cc(Cl)ccc3Cl)CC2)c1 [CD20]
IC50 (ALDH3A1 [2]; [4]): 41 µM
IC50 (ALDH1A1): 33 µM

Structure (SMILES): CNS(=O)(=O)c1ccc(Nc2ccc(F)cc2)c([N+](=O)[O-])c1 [Compound 2]
IC50 (ALDH3A1 [2]; [5]): 26 µM
IC50 (ALDH3A1 [2]; [6]): 26 µM
inhibitory potential toward ALDH2 activity in vitro (in words) (ALDH2): no inhibitory potential
concentration of homogenous solution easily formed (Solubility): ≥ 100 µM
inhibitory potential / activity toward ALDH1A1 in vitro (in words) (ALDH1A1): no inhibitory potential
sensitivity to mafosfamide on co-treatment (in words), A549 (A549 cells): increased sensitivity to mafosfamide
effect on cell proliferation as single agent (in words), A549 (A549 cells): little effect on cell proliferation
sensitivity to mafosfamide on co-treatment (in words), SF767 (SF767 cells): increased sensitivity to mafosfamide
effect on cell proliferation as single agent (in words), SF767 (SF767 cells): little effect on cell proliferation

Structure (SMILES): Cc1ccc(C)c(Nc2ccc(S(C)(=O)=O)cc2[N+](=O)[O-])c1 [Compound 7]
IC50 (micromolar) ALDH1A1 (ALDH1A1): WA (WA represents (30-50) % activation shown by 100 μM compound to respective enzymes)

Structure (SMILES): Cc1ccc(Nc2ccc(S(C)(=O)=O)cc2[N+](=O)[O-])cc1F [Compound 8]
IC50 (ALDH3A1 [2]; [5]): 10.8 µM
IC50 (ALDH3A1 [1]): 10 µM
inhibitory potential toward ALDH2 activity in vitro (in words) (ALDH2): no inhibitory potential
concentration of homogenous solution easily formed (Solubility): ≥ 100 µM
inhibitory potential / activity toward ALDH1A1 in vitro (in words) (ALDH1A1): no inhibitory potential
IC50 (micromolar) ALDH1A1 (ALDH1A1): WA (WA represents (30-50) % activation shown by 100 μM compound to respective enzymes)
sensitivity to mafosfamide on co-treatment (in words), A549 (A549 cells): increased sensitivity to mafosfamide
effect on cell proliferation as single agent (in words), A549 (A549 cells): little effect on cell proliferation
sensitivity to mafosfamide on co-treatment (in words), SF767 (SF767 cells): increased sensitivity to mafosfamide
effect on cell proliferation as single agent (in words), SF767 (SF767 cells): little effect on cell proliferation

Structure (SMILES): CNS(=O)(=O)c1ccc(Nc2ccc(OC)cc2)c([N+](=O)[O-])c1 [Compound 10]
IC50 (ALDH3A1 [2]; [5]): 31.7 µM
IC50 (ALDH3A1 [2]; [6]): 31 µM
inhibitory potential toward ALDH2 activity in vitro (in words) (ALDH2): no inhibitory potential
concentration of homogenous solution easily formed (Solubility): ≥ 100 µM
inhibitory potential / activity toward ALDH1A1 in vitro (in words) (ALDH1A1): no inhibitory potential
effect on cell proliferation as single agent (in words), A549 (A549 cells): little effect on cell proliferation
effect on cell proliferation as single agent (in words), SF767 (SF767 cells): little effect on cell proliferation

Structure (SMILES): CNS(=O)(=O)c1ccc(Nc2ccc(OC(F)F)cc2)c([N+](=O)[O-])c1 [Compound 11]
IC50 (ALDH3A1 [2]; [5]): 24.7 µM
IC50 (ALDH3A1 [2]; [6]): 24 µM
inhibitory potential toward ALDH2 activity in vitro (in words) (ALDH2): no inhibitory potential
concentration of homogenous solution easily formed (Solubility): ≥ 100 µM
inhibitory potential / activity toward ALDH1A1 in vitro (in words) (ALDH1A1): no inhibitory potential
sensitivity to mafosfamide on co-treatment (in words), A549 (A549 cells): increased sensitivity to mafosfamide
effect on cell proliferation as single agent (in words), A549 (A549 cells): little effect on cell proliferation
sensitivity to mafosfamide on co-treatment (in words), SF767 (SF767 cells): increased sensitivity to mafosfamide
effect on cell proliferation as single agent (in words), SF767 (SF767 cells): little effect on cell proliferation

Structure (SMILES): Cc1nc2ccccc2n1S(=O)(=O)c1ccc(Cl)cc1 [Compound A20]
chemosensitivity to mafosfamide (in words), SF767 (SF767 cells): significantly increased chemosensitivity

Structure (SMILES): O=S(=O)(c1ccc(Cl)cc1)n1cnc2ccccc21 [Compound A21]
chemosensitivity to mafosfamide (in words), SF767 (SF767 cells): significantly increased chemosensitivity

Structure (SMILES): CC(=O)c1nc2ccccc2n1S(=O)(=O)c1ccc(Cl)cc1 [Compound B37]
chemosensitivity to mafosfamide (in words), SF767 (SF767 cells): significantly increased chemosensitivity

Propionaldehyde Kcat/Km (ALDH3A1 Q122A mutant): 817 ± 50 M⁻¹ s⁻¹
Propionaldehyde Kcat/Km (ALDH3A1 Q122A mutant; listed as propionaldehyde): 817 M⁻¹ s⁻¹
Km (ALDH3A1 Q122A mutant; read-out: Propionaldehyde Km): 23.9 ± 1.99 mM
Propionaldehyde Kcat/Km (ALDH3A1 Q122W mutant): 650 ± 83 M⁻¹ s⁻¹
Propionaldehyde Kcat/Km (ALDH3A1 Q122W mutant; listed as propionaldehyde): 650 M⁻¹ s⁻¹
Km (ALDH3A1 Q122W mutant; read-out: Propionaldehyde Km): 5.36 ± 0.59 mM
Propionaldehyde Kcat/Km (ALDH3A1 [3]): 830 ± 50 M⁻¹ s⁻¹
Propionaldehyde Kcat/Km (ALDH3A1 [3]; listed as propionaldehyde): 830 M⁻¹ s⁻¹
Km (ALDH3A1 [3]; read-out: Propionaldehyde Km): 20.5 ± 0.272 mM
Structure (SMILES): CCC=O [Propionaldehyde]
